From ChEMBL document CHEMBL1153288, “1,3,4-Oxadiazole substituted naphthyridines as HIV-1 integrase inhibitors. Part 2: SAR of the C5 position” (Bioorg Med Chem Lett, 2009)

Tests used:
[1] = Therapeutic index, CC50 for human 293T cells to EC50 for G-pseudotyped HIV; assay type: cell-based; settings: read-out: Ratio CC50/EC50
[2] = tested on: Human immunodeficiency virus; test: Antiviral activity against G-pseudotyped HIV expressed in 293T cells with pGI3Luci; assay type: functional, organism-based; settings: Human immunodeficiency virus 1, HEK-293T
[3] = Inhibition of recombinant HIV integrase strand transfer activity; set-up: species or system Human immunodeficiency virus

Row | Structure (SMILES) | selectivity ratio [1] | EC50 [2] | IC50 [3]
1 | CN(C)S(=O)(=O)c1ccc(-c2nc(-c3nnc(Cc4ccc(F)cc4)o3)c(O)c3ncccc23)cc1 | 218 | 9 nM | 18 nM
2 | O=C(O)c1ccc(-c2nc(-c3nnc(Cc4ccc(F)cc4)o3)c(O)c3ncccc23)cc1 | 241 | 58 nM | 2 nM
3 | O=C1CN(C(=O)c2nc(-c3nnc(Cc4ccc(F)cc4)o3)c(O)c3ncccc23)CCN1 | – | > 14000 nM | 74 nM
4 | O=C(O)c1cccc(-c2nc(-c3nnc(Cc4ccc(F)cc4)o3)c(O)c3ncccc23)c1 | > 60 | 230 nM | 2 nM
5 | CC(C)NC(=O)c1nc(-c2nnc(Cc3ccc(F)cc3)o2)c(O)c2ncccc12 | 22 | 98 nM | 190 nM
6 | O=S1(=O)CCCCN1c1nc(-c2nnc(Cc3ccc(F)cc3)o2)c(O)c2ncccc12 | 198 | 13 nM | 2 nM
7 | CC(C)NC(=O)c1cccc(-c2nc(-c3nnc(Cc4ccc(F)cc4)o3)c(O)c3ncccc23)c1 | 182 | 28 nM | 10 nM
8 | CC(=O)N(C)c1nc(-c2nnc(Cc3ccc(F)cc3)o2)c(O)c2ncccc12 | 428 | 180 nM | 28 nM
9 | O=C1OCCN1c1nc(-c2nnc(Cc3ccc(F)cc3)o2)c(O)c2ncccc12 | > 666 | 21 nM | 13 nM
10 | NC(=O)c1ccc(-c2nc(-c3nnc(Cc4ccc(F)cc4)o3)c(O)c3ncccc23)cc1 | 1220 | 10 nM | 6 nM
11 | CS(=O)(=O)c1ccccc1-c1nc(-c2nnc(Cc3ccc(F)cc3)o2)c(O)c2ncccc12 | 243 | 23 nM | 11 nM
12 | CC(=O)Nc1nc(-c2nnc(Cc3ccc(F)cc3)o2)c(O)c2ncccc12 | 127 | 110 nM | 72 nM
13 | Oc1c(-c2nnc(Cc3ccc(F)cc3)o2)nc(-c2ccccc2)c2cccnc12 | 49 | 36 nM | 29 nM
14 | Oc1c(-c2nnc(Cc3ccc(F)cc3)o2)nc(-c2ccc[nH]2)c2cccnc12 | 31 | 160 nM | 12 nM
15 | CN(C)S(=O)(=O)c1ccccc1-c1nc(-c2nnc(Cc3ccc(F)cc3)o2)c(O)c2ncccc12 | 67 | 29 nM | 4 nM
16 | CS(=O)(=O)Nc1cccc(-c2nc(-c3nnc(Cc4ccc(F)cc4)o3)c(O)c3ncccc23)c1 | 435 | 14 nM | 8 nM
17 | CS(=O)(=O)N1CCN(c2nc(-c3nnc(Cc4ccc(F)cc4)o3)c(O)c3ncccc23)CC1 | 162 | 38 nM | 19 nM
18 | CN1CCN(c2nc(-c3nnc(Cc4ccc(F)cc4)o3)c(O)c3ncccc23)S1(=O)=O | 137 | 63 nM | 4 nM
19 | CN(C)C(=O)c1ccc(-c2nc(-c3nnc(Cc4ccc(F)cc4)o3)c(O)c3ncccc23)cc1 | 668 | 12 nM | 18 nM
20 | CN(C)C(=O)CN1CCN(c2nc(-c3nnc(Cc4ccc(F)cc4)o3)c(O)c3ncccc23)CC1 | 205 | 43 nM | 12 nM
21 | COCCNC(=O)c1nc(-c2nnc(Cc3ccc(F)cc3)o2)c(O)c2ncccc12 | 139 | – | 190 nM
22 | CC(=O)Nc1cccc(-c2nc(-c3nnc(Cc4ccc(F)cc4)o3)c(O)c3ncccc23)c1 | 1400 | 10 nM | 80 nM
23 | CC(=O)Nc1ccc(-c2nc(-c3nnc(Cc4ccc(F)cc4)o3)c(O)c3ncccc23)cc1 | 591 | 6 nM | 4 nM
24 | N#Cc1nc(-c2nnc(Cc3ccc(F)cc3)o2)c(O)c2ncccc12 | – | > 35000 nM | 240 nM
25 | O=C1NCCN1c1nc(-c2nnc(Cc3ccc(F)cc3)o2)c(O)c2ncccc12 | 311 | 45 nM | 12 nM
26 | CS(=O)(=O)Nc1nc(-c2nnc(Cc3ccc(F)cc3)o2)c(O)c2ncccc12 | 131 | 110 nM | 19 nM

Row | Structure (SMILES) | selectivity ratio [1] | EC50 [2] | IC50 [3]
27 | O=C1N(CCO)CCN1c1nc(-c2nnc(Cc3ccc(F)cc3)o2)c(O)c2ncccc12 | 148 | 94 nM | 13 nM
28 | CNc1nc(-c2nnc(Cc3ccc(F)cc3)o2)c(O)c2ncccc12 | 30 | 400 nM | 74 nM
29 | O=C(NCCO)c1nc(-c2nnc(Cc3ccc(F)cc3)o2)c(O)c2ncccc12 | > 9 | 1490 nM | 130 nM
30 | NC(=O)c1nc(-c2nnc(Cc3ccc(F)cc3)o2)c(O)c2ncccc12 | 75 | 160 nM | 100 nM
31 | O=S1(=O)CCCN1c1nc(-c2nnc(Cc3ccc(F)cc3)o2)c(O)c2ncccc12 | > 129 | 110 nM | 8 nM
32 | Oc1c(-c2nnc(Cc3ccc(F)cc3)o2)nc(-c2cccnc2)c2cccnc12 | 194 | 36 nM | 11 nM
33 | CN1CCCN(c2nc(-c3nnc(Cc4ccc(F)cc4)o3)c(O)c3ncccc23)S1(=O)=O | 294 | 31 nM | 6 nM
34 | CS(=O)(=O)Nc1ccc(-c2nc(-c3nnc(Cc4ccc(F)cc4)o3)c(O)c3ncccc23)cc1 | 915 | 9 nM | 3 nM
35 | CC(C)NS(=O)(=O)c1ccc(-c2nc(-c3nnc(Cc4ccc(F)cc4)o3)c(O)c3ncccc23)cc1 | 118 | 15 nM | 4 nM
36 | CC(C)NS(=O)(=O)c1ccccc1-c1nc(-c2nnc(Cc3ccc(F)cc3)o2)c(O)c2ncccc12 | 295 | 8 nM | 12 nM
37 | CN(C)C(=O)N1CCN(c2nc(-c3nnc(Cc4ccc(F)cc4)o3)c(O)c3ncccc23)C(=O)C1 | 120 | 87 nM | 23 nM
38 | Oc1c(-c2nnc(Cc3ccc(F)cc3)o2)nc(-c2ccoc2)c2cccnc12 | 116 | 100 nM | 23 nM
39 | CCOC(=O)C(=O)Nc1nc(-c2nnc(Cc3ccc(F)cc3)o2)c(O)c2ncccc12 | 10 | 1300 nM | 33 nM
40 | CNC(=O)c1nc(-c2nnc(Cc3ccc(F)cc3)o2)c(O)c2ncccc12 | 43 | 150 nM | 120 nM
41 | Oc1c(-c2nnc(Cc3ccc(F)cc3)o2)nc(-n2cccn2)c2cccnc12 | 546 | 16 nM | 4 nM
42 | CN1CCN(C(=O)c2nc(-c3nnc(Cc4ccc(F)cc4)o3)c(O)c3ncccc23)CC1 | > 144 | 97 nM | 44 nM
43 | O=C1CCCN1c1nc(-c2nnc(Cc3ccc(F)cc3)o2)c(O)c2ncccc12 | > 156 | 89 nM | 19 nM
44 | Cc1ccn(-c2nc(-c3nnc(Cc4ccc(F)cc4)o3)c(O)c3ncccc23)n1 | 23 | 380 nM | 21 nM
45 | CS(=O)(=O)c1cccc(-c2nc(-c3nnc(Cc4ccc(F)cc4)o3)c(O)c3ncccc23)c1 | 234 | 13 nM | 6 nM
46 | Oc1c(-c2nnc(Cc3ccc(F)cc3)o2)nc(-c2cnccn2)c2cccnc12 | 24 | 170 nM | 20 nM
47 | O=C(NCCCO)c1nc(-c2nnc(Cc3ccc(F)cc3)o2)c(O)c2ncccc12 | > 30 | 470 nM | 71 nM
48 | CN1CCN(c2nc(-c3nnc(Cc4ccc(F)cc4)o3)c(O)c3ncccc23)C1=O | > 466 | 30 nM | 15 nM
49 | Cc1ccccc1S(=O)(=O)Nc1nc(-c2nnc(Cc3ccc(F)cc3)o2)c(O)c2ncccc12 | 74 | 190 nM | 42 nM
50 | O=C1CCCCCN1c1nc(-c2nnc(Cc3ccc(F)cc3)o2)c(O)c2ncccc12 | > 411 | 34 nM | 25 nM
51 | O=C1NCCCN1c1nc(-c2nnc(Cc3ccc(F)cc3)o2)c(O)c2ncccc12 | > 250 | 56 nM | 11 nM
